As usually defined, the kinetic solubility is the concentration staying in solution when a stock, usually in DMSO, is diluted into the medium.

In brackets after ≈: the same amount, converted by molar mass.

The conditions of the series: buffer; pH 7.4; 200.0 µM.
As to `COc1ccc(N2CCN(CC(=O)NC(C)c3ccccc3)CC2)cc1` (configuration not stated), the solubility (kinetic) is 45.1 µg/mL (≈ 128 µM).
As to `O=C1N(Cc2ccccc2)c2ccccc2C12OCCO2`, the solubility (kinetic) was determined as 28.9 µg/mL (≈ 103 µM).
`CCCCCCOC(=O)Cc1c(C)nc(N)[nH]c1=O` showed a kinetic solubility greater than 40.1 µg/mL.
`CN(C)C=Nc1c(Br)cc(Br)c2nonc12` returned a kinetic solubility of 6 µg/mL (≈ 17.2 µM).
Turning to `COc1ccc2nc(C)cc(Nc3ccc(C(=O)O)cc3)c2c1`, the kinetic solubility came out at 40.5 µg/mL (≈ 131 µM).
`O=C(Nc1cccc2ccccc12)C1CCCC1` displayed a solubility (kinetic) of 12.2 µg/mL (≈ 51 µM).
In turn, `Cc1ccc2ncnc(Nc3ccccc3)c2c1` yielded a solubility (kinetic) of 11.6 µg/mL (≈ 49.3 µM).
`Cc1cc(C)c2sc(N)nc2c1` came in with a kinetic solubility of 25.1 µg/mL (≈ 141 µM).
For `O=S(=O)(NCCN1CCCC1)c1ccc(C(F)(F)F)cc1`, the solubility (kinetic) is greater than 48.4 µg/mL.
With `COc1ccc(C2c3sc(=O)[nH]c3SCC2C(N)=O)cc1` (configuration not stated), the solubility (kinetic) came to 40 µg/mL (≈ 124 µM).
Take `CN1CCCN(C(=O)c2cccc(Br)c2)CC1`: the solubility (kinetic) worked out at 35.4 µg/mL (≈ 119 µM).
With `CCCOc1ccc2nc(C)c(CCC)c(SC(=N)N)c2c1.Cl`, the kinetic solubility was found to be 33 µg/mL.
To `COc1cccc2cc(C(=O)OCC(=O)NC3CCCC(C)C3C)c(=O)oc12` (configuration not stated) belongs 13.7 µg/mL (≈ 35.4 µM); to `COc1ccccc1C1CCN(C(=O)c2ccc(C(C)(C)C)cc2)CC1`, 3.1 µg/mL (≈ 8.82 µM).
On to `Cc1cccc(C)c1NC(=S)N(Cc1cccs1)C1CCCC1`, for which the kinetic solubility was 0.6 µg/mL (≈ 1.74 µM).
In turn, `CC1CCCC(C)N1C(=O)COC(=O)c1ccco1` (configuration not stated) yielded a solubility (kinetic) greater than 39.8 µg/mL.
`CN(Cc1ccccc1Cl)C(=O)CNC(=O)C12CC3CC(CC(C3)C1)C2` returned a solubility (kinetic) greater than 56.2 µg/mL.
`CCN1C(=O)Cc2cc(S(=O)(=O)NCCc3ccccc3)ccc21` yielded a kinetic solubility of 32.9 µg/mL (≈ 95.5 µM).
The compound `O=C(COC(=O)c1ccccc1F)NC1CC1` had a solubility (kinetic) greater than 35.6 µg/mL.
With `O=C(NC(=S)NCc1cccnc1)c1cc(Br)ccc1Cl`, the solubility (kinetic) was determined as 0.9 µg/mL (≈ 2.34 µM).
`O=C(NCc1ccccc1)c1ccc(CSc2ccccc2)o1` came in with a solubility (kinetic) of 11.1 µg/mL (≈ 34.3 µM).
The compound `Cn1ccnc1C(O)(c1ccccc1)c1ccccc1` came in with a solubility (kinetic) of 35.4 µg/mL (≈ 134 µM).
`Cc1nc([N+](=O)[O-])cn1CC(=O)c1ccc(F)cc1` displayed a solubility (kinetic) greater than 39.5 µg/mL.
On to `Cc1ccc(C(=O)Nc2cccnc2N2CCN(C)CC2)cc1`, for which the solubility (kinetic) is greater than 46.6 µg/mL.
`COc1ccc(/C=C/C(=O)NCCCN2CCCC2)cc1`: the solubility (kinetic) was greater than 43.3 µg/mL.
In turn, `CCOc1ccc(Cc2c(C)[nH]c3ccc(C(=O)O)cc3c2=S)cc1` came in with a solubility (kinetic) of 36.2 µg/mL (≈ 102 µM).
The compound `O=C(c1cc2ccccc2o1)N1CCOCC1` gave a solubility (kinetic) greater than 34.7 µg/mL.
`CCCCN1CNC(=S)N(CCc2ccc(OCC)c(OCC)c2)C1` showed a kinetic solubility of 12.6 µg/mL (≈ 34.5 µM).
`CC(=O)Nc1ccc(NC(=O)c2ccc(Cl)nc2)cc1`: the kinetic solubility is greater than 43.5 µg/mL.
Consider `O=C1NC2=C(C(=O)CCC2)C(c2ccc(OC(F)F)cc2)N1` (configuration not stated), for which the kinetic solubility came out at 41.8 µg/mL (≈ 136 µM).
As to `CCN1CCN(c2ccc(NC(=O)c3ccc(Br)o3)cc2)CC1`, the solubility (kinetic) is greater than 56.7 µg/mL.
As for `COc1ccccc1NC(=O)COC(=O)c1cc(C)n(C2CC2)c1C`, the kinetic solubility came out at 3.4 µg/mL (≈ 9.93 µM).
For `COc1ccccc1N(CC(=O)NC1CCCCC1C)S(=O)(=O)c1cccs1` (configuration not stated), the solubility (kinetic) came out at 2 µg/mL (≈ 4.73 µM).
For the compound `OC1/C(=C/c2ccc(C(F)(F)F)cc2)N2CCC1CC2` (configuration not stated), the kinetic solubility is 41.5 µg/mL (≈ 146 µM).
Then `Cc1cc(C(=O)NCc2cc(C(=O)O)co2)co1`, with greater than 37.4 µg/mL.
Compound `CSc1sc(C(=O)NCC2CC2)c(-c2cccs2)c1C#N` showed a solubility (kinetic) of 8.6 µg/mL (≈ 25.7 µM).
To `Cc1ccccc1C(=O)Nc1cccc(C(=O)Nc2ccccc2C(=O)O)c1` belongs greater than 56.2 µg/mL; to `Cc1ccc(S(=O)(=O)NC2=NCN(C(C)C)CN2)cc1`, greater than 44.5 µg/mL.
`N#Cc1c(N)nc2c(c1N)CC(C(F)(F)F)O2` (configuration not stated): the kinetic solubility was greater than 36.6 µg/mL.
With `COc1cc(/C=C(\C#N)C(=O)NC(C)C)cc(Cl)c1O`, the kinetic solubility was 28.4 µg/mL (≈ 96.4 µM).
In turn, `Cc1c(C(=O)C(=O)N2CCN(C)CC2)c2ccccc2n1C` came in with a solubility (kinetic) greater than 44.9 µg/mL.
For `COc1ccc(C(=O)Nc2cc(C)on2)cc1OC`, the kinetic solubility is 26.9 µg/mL (≈ 103 µM).
In turn, `Cc1ccc(C(=O)NCCc2ccccc2)cc1` came in with a kinetic solubility of 27.4 µg/mL (≈ 114 µM).
Take `Cc1ccc2nc(SC(C)C(=O)N3CC(C)OC(C)C3)[nH]c2c1` (configuration not stated): the solubility (kinetic) came to 49.4 µg/mL (≈ 148 µM).
To `S=C(NCc1ccc(Cl)cc1)N1CCN(c2ccccn2)CC1` belongs less than 0.2 µg/mL; to `O=C(Nc1cccc(Cl)c1)OC1CN2CCC1CC2` (configuration not stated), 3.6 µg/mL (≈ 12.8 µM).
Then `CCn1ccnc1CN(C)Cc1nc(CCC(C)C)no1`, with 38.4 µg/mL (≈ 132 µM); and `O=C(Nc1nc(-c2cccnc2)cs1)c1ccccc1[N+](=O)[O-]`, with 0.7 µg/mL (≈ 2.15 µM); and `Cc1cccc(-c2nc(CNC(=O)c3ccco3)cs2)c1`, with greater than 44.8 µg/mL.
Consider `Cc1cccc(C(=O)N2CCC(c3nc4ccccc4s3)CC2)c1`, for which the solubility (kinetic) was greater than 50.5 µg/mL.
As to `COc1cc(C(=O)NCC(c2cccs2)N2CCOCC2)cc(Br)c1OCc1ccccc1` (configuration not stated), the kinetic solubility is 6.3 µg/mL (≈ 11.9 µM).
As to `CCOC(=O)N1CCC(NC(=O)c2ccc(Cl)cc2)CC1`, the kinetic solubility is greater than 46.6 µg/mL.

For the origin of these results see PubChem BioAssay AID1996.
